Read-outs that look alike come from different tables or passages of the source.
Tests used:
[1] = tested on: normal activated T-cells; test: rGal1-induced apoptosis of activated T cells (FITC-annexin V and PI double staining); type: cell-based, human; conditions: activated T cells treated with rGal1 in the presence or absence of TDG; FIG. 4
Description: Activated T-cells were either untreated or treated with rGal1 in the presence or absence of TDG. Thereafter, apoptosis was assessed by FITC-annexin V and PI double staining. The histograms (left panels) are representative of 3 separate experiments that were averaged to obtain the percent positive cells in the bar graphs (right panels).
Recombinant Gal1 was obtained and purified essentially as described (Toscano et al. (2006) J Immunol 176, 6323-6332). T cells were purified as described above and simultaneously activated with anti-CD3-(0.1 μg/mL) and anti-CD28-(0.5 μg/mL) coated latex beads (Invitrogen) and treated with rGal1 (20 μM) in RPMI 1640 medium containing 10% fetal bovine serum and 1 mM β-ME alone or rGal1 and the Gal1 inhibitor, thiodigalactoside (TDG, 100 mM) (Rabinovich et al. (1999) J Exp Med 190, 385-397) or left untreated for 16 hours. Supernatants were then analyzed for IL-4, IL-5, IL-10, and IL-13 using cytometric bead array (CBA) Flex Set beads according to manufacturer's protocol (BD Biosciences, San Jose, Calif.). […] Thereafter, the PE detection reagent was added and samples were incubated for an additional 2 hours, washed and analyzed using FACS Aria Flow Cytometer (BD Biosciences). Results were captured with FACS Diva software and analyzed with the FCAP1.1 program (BD Biosciences). […]

[2] = tested on: activated T cells; test: Th2 cytokine production by rGal1-treated activated T cells (cytometric bead array); type: cell-based, human; conditions: anti-CD3/anti-CD28 activated T cells, rGal1 20 μM, TDG 100 mM, 16 hours; FIG. 3D
Description: Recombinant Gal1 was obtained and purified essentially as described (Toscano et al. (2006) J Immunol 176, 6323-6332). T cells were purified as described above and simultaneously activated with anti-CD3-(0.1 μg/mL) and anti-CD28-(0.5 μg/mL) coated latex beads (Invitrogen) and treated with rGal1 (20 μM) in RPMI 1640 medium containing 10% fetal bovine serum and 1 mM β-ME alone or rGal1 and the Gal1 inhibitor, thiodigalactoside (TDG, 100 mM) (Rabinovich et al. (1999) J Exp Med 190, 385-397) or left untreated for 16 hours. Supernatants were then analyzed for IL-4, IL-5, IL-10, and IL-13 using cytometric bead array (CBA) Flex Set beads according to manufacturer's protocol (BD Biosciences, San Jose, Calif.). In brief, multiplexed antibody-conjugated beads were incubated with culture supernatants or serial dilutions of cytokine standards for 1 hour. Thereafter, the PE detection reagent was added and samples were incubated for an additional 2 hours, washed and analyzed using FACS Aria Flow Cytometer (BD Biosciences). Results were captured with FACS Diva software and analyzed with the FCAP1.1 program (BD Biosciences).

[3] = tested on: activated T cells; test: Analysis of regulatory T cells (CD4+ CD25high FOXP3+) by triple-color flow cytometry; type: cell-based, human; conditions: activated T cells treated with rGal1 or rGal1 and TDG, 24 hours; FIG. 3E
Description: T cells were purified, activated with anti-CD3- and anti-CD28-coated latex beads and treated with rGal1, rGal1 and TDG or left untreated for 24 hours. Thereafter, cells were stained with CD4-FITC and CD25-APC, washed, fixed, permeabilized and stained with FOXP3-PE antibody or rat IgG2b isotype control as previously described (Zorn et al. (2006) Blood 108, 1571-1579) (Human Regulatory T-cell staining kit, eBioscience, San Diego, Calif.). CD4^+ CD25^high FOXP3 Treg cells were identified and quantified using Beckman Cytomics FC500 flow cytometer as previously described (Zorn et al. (2006) Blood 108, 1571-1579).

[4] = tested on: activated T cells co-cultured with HD-MY-Z cells; test: Viable T cells after co-culture with Gal1 shRNA or SCR shRNA HD-MY-Z cHL cells (Annexin-V, CD3, CD4 flow cytometry); type: cell-based, human; conditions: PHA-activated T cells, 6 hours co-culture, Gal1 shRNA versus SCR shRNA HD-MY-Z; FIG. 3B
Description: 1. Co-culture. Peripheral blood mononuclear cells (PBMCs) were obtained from normal blood donors by Ficoll-Hypaque (GE Healthcare) gradient centrifugation. Thereafter, T cells were purified using Pan T Cell Isolation Kit II (Miltenyi Biotec, Auburn, Calif.) and activated with 1 μg/mL PHA (Sigma-Aldrich) for 64 hours. 1×10^6 of activated T cells were then co-cultured with monolayers (3×10^6 cells) of HD-MY-Z cells expressing either scrambled shRNA or Gal1 specific shRNA for 6 hours at 37° C.
2. Analyses of viable T cells. Following co-culture, all cells were harvested and sequentially stained with CD3-PE and CD4-PE-Cy5 (Beckman Coulter, Fullerton, Calif.) followed by Annexin V-FITC and analyzed with a Beckman Cytomics FC500 flow cytometer. The numbers of viable (annexin V-) and (propidium iodide-) CD3^+ and CD4^+ T cells in Gal1 shRNA or scrambled shRNA HD-MY-Z/T-cell co-cultures were then compared.

[5] = tested on: CD4+ T cells co-cultured with HD-MY-Z cells; test: T-bet and GATA-3 expression in co-cultured CD4+ T cells (QPCR); type: cell-based, human; conditions: CD4+ cells after 24-48 hours co-culture, Gal1 shRNA versus SCR shRNA HD-MY-Z; FIG. 3C
Description: 3. Analyses of T-bet and GATA-3 expression in co-cultured CD4^+ T cells. After PHA-activated T-cells were co-cultured with HD-MY-Z cells expressing either scrambled shRNA or Gal1 specific shRNA for 24-48 hours, cells were collected and non-viable cells were depleted by Ficoll-Hypaque gradient centrifugation. Remaining viable cells were washed, incubated with CD4 MACS microbeads and purified using a MACS LS column according to the manufacturer's protocol (Miltenyi Biotec). Thereafter, RNA was obtained from the isolated CD4^+ cells and cDNA was synthesized from total RNA (3 μg) as described above. GATA-3, T-bet and GAPDH (housekeeping control) transcript abundance was evaluated by QPCR using Power SYBR green PCR Master Mix (Applied Biosystems, Foster City, Calif.), GAPDH primers listed above and the following GATA3 and T-bet primers: GATA3, Forward: […] (SEQ ID NO: 14); GATA3, Reverse: ACACCTGGCTCCCGTGGT (SEQ ID NO: 15); T-bet, Forward: […] (SEQ ID NO: 16); T-bet, Reverse: […] (SEQ ID NO: 17). PCR and transcript abundance analysis was performed as described above. GATA-3 and T-bet expression in purified CD4^+ cells from SCR shRNA and Gal1 shRNA HD-MY-Z/T-cell cocultures were then compared.

[6] = tested on: Gal1; test: RNA-interference mediated Gal1 knock-down in HD-MY-Z cells (immunoblot); type: cell-based, human; conditions: HD-MY-Z cells transduced with pSIREN-RetroQ vector; FIG. 3A
Source text: DLBCL and cHL cell lines were maintained as previously described (Mathas et al. (2002) Embo J 21, 4104-4113; Polo et al. (2007) Proc Natl Acad Sci USA 104, 3207-3212). Cells were lysed, size-fractionated on NuPAGE Novex 4-12% Bis-Tris Gels (Invitrogen, Carlsbad, Calif.), and transferred to PVDF membranes (Millipore Corp., Bedford, Mass.). Membranes were immunostained with purified Gal1 rabbit IgG (Rubinstein et al. (2004) Cancer Cell 5, 241-251) and HRP-conjugated donkey anti-rabbit antibody (GE Healthcare, Piscataway, N.J.) and developed using a chemiluminescent method (ECL, GE Healthcare).
Gal1 specific siRNA was designed using siRNA Selection Program (Yuan et al. (2004) Nucleic Acids Res 32, W130-134) (available on the World Wide Web at jura.wi.mit.edu/bioc/siRNAext/), synthesized as single-stranded DNA oligonucleotides by Integrated DNA Technologies (IDT, Inc., Coralville, Iowa) and annealed. […]

[7] = tested on: HD-MY-Z cells; test: Proliferation rate and viability of transduced HD-MY-Z cells; type: cell-based, human; conditions: after Gal1 knockdown
Source text: Gal1 specific siRNA was designed using siRNA Selection Program (Yuan et al. (2004) Nucleic Acids Res 32, W130-134) (available on the World Wide Web at jura.wi.mit.edu/bioc/siRNAext/), synthesized as single-stranded DNA oligonucleotides by Integrated DNA Technologies (IDT, Inc., Coralville, Iowa) and annealed. Gal1-specific oligonucleotide (Gal1 RNAi, […] (SEQ ID NO: 12) or scrambled oligonucleotide (SCR, […] (SEQ ID NO: 13) were ligated into the linearized pSIREN-RetroQ retroviral vector (BD Clontech, Mountain View, Calif.). Generation of recombinant retrovirus and infection of HD-MY-Z cells was performed as previously described (Juszczynski et al. (2006) Mol Cell Biol 26, 5348-5359). After infection, cells were subjected to puromycin selection (0.5 μg/mL) and subcloning by limiting dilution. Thereafter, whole-cell extracts of obtained subclones were prepared and screened for Gal1 expression by immunoblotting as described above.

[8] = tested on: Th1-dependent responses; conditions: cited from earlier work; for Th1-dependent responses: murine models of chronic inflammatory / autoimmune disorders

Compound	apoptosis of total activated T cells [1]	IL-4 in supernatants [2]	IL-5 in supernatants [2]	IL-10 in supernatants [2]	IL-13 in supernatants [2]	CD4+ CD25high FOXP3+ Treg population [3]	viable Th (CD4+) T cells [4]	viable total (CD3+) T cells [4]	expression of GATA-3 (Th2-specific transcription factor) [5]	expression of T-bet (Th1-specific transcription factor) [5]	Gal1 protein expression [6]	proliferation rate or viability of transduced HD-MY-Z cells [7]	cytokine profile ([8]; murine models of Th1-driven chronic inflammatory and autoimmune disorders)	Th1-dependent responses ([8]; listed as Gal1)	Th1-dependent responses ([8]; listed as recombinant Gal1)	T-cell susceptibility to activation-induced cell death ([8]; murine models of chronic inflammatory diseases)
OC[C@H]1O[C@@H](S[C@@H]2O[C@H](CO)[C@H](O)[C@H](O)[C@H]2O)[C@H](O)[C@@H](O)[C@H]1O [TDG, thiodigalactoside, reference compound]	completely blocked rGal1-induced apoptosis	specifically blocked this effect	specifically blocked this effect	specifically blocked this effect	specifically blocked this effect	completely blocked this effect										
Gal1 shRNA: pSIREN-RetroQ retroviral vector encoding Gal1-specific shRNA; target sequence GCTGCCAGATGGATACGAA (SEQ ID NO: 1) (DNA GATCCGCTGCCAGATGGATACGAATTCAAGAGATTCGTATCCATCTGGCAGCTTTTTTG)							significantly fewer viable total (CD3^+) and Th (CD4^+) T cells in control (SCR) HD-MY-Z co-cultures than in co-cultures of HD-MY-Z cells with Gal1 knockdown	significantly fewer viable total (CD3^+) and Th (CD4^+) T cells in control (SCR) HD-MY-Z co-cultures than in co-cultures of HD-MY-Z cells with Gal1 knockdown	higher expression of GATA-3 than CD4^+ T cells from Gal1 shRNA HD-MY-Z co-cultures	control (SCR) HD-MY-Z cells exhibited significantly lower expression of T-bet	can be blocked	did not alter				
rGal1: recombinant Gal1 (galectin-1), a glycan-binding protein	induced apoptosis	significantly higher amounts	significantly higher amounts	significantly higher amounts	significantly higher amounts	significantly increased							skewed towards Th2 cytokine profiles	dramatically suppressed	suppressed	increased
